System: Lone star tick larvae (Amblyomma americanum)
Assay: In Vitro Larval Immersion Microassay (LIM)
Details: read-out: % Efficacy (percent larval mortality)

O=C(NC1CCOCC1)c1sc(C2=NOC(c3cc(Cl)cc(Cl)c3)(C(F)(F)F)C2)c2c1CCCC2 (stereo not shown) [Example 71, 3-(5-(3,5-dichloro-phenyl)-5-(trifluoro-methyl)-4,5-dihydro-isoxazol-3-yl)-N-(tetrahydro-2H-pyran-4-yl)-4,5,6,7-tetrahydrobenzo [c]thiophene-1-carboxamide]
mortality at 300 µM: ≥ 80%

Reference: patent US8648081B2 (Eli Lilly and Company, priority 2011, dated 2014)
